{"source": "patent US12564569B2", "about": "“Carboplatin complex and pharmaceutical preparation thereof” (ADVANCHL BIO[…] CENTER (SHANGHAI), priority 2019, dated 2026)", "key": {"linear DNA": {"system": "linear DNA", "test": "Binding assay with a linear DNA", "settings": "in a certain period of time"}, "supercoiled plasmid DNA": {"system": "supercoiled plasmid DNA", "test": "Mixing with supercoiled plasmid DNA, electrophoresis", "type": "binding", "settings": "electrophoresis after a period of time"}, "[1]": {"system": "supercoiled plasmid (pcDNA) with or without T4 GP41 DNA helicase", "test": "DNA binding test involving helicase (gel electrophoresis)", "type": "biochemical", "settings": "Test 1 vs Test 4; 0.1 mmol/L, 1 hour, 37° C.", "text": "In this experiment, the effect of a helicase on carboplatin 4.0 was verified by a DNA binding test involved by the helicase, including: using the supercoiled and linear plasmid DNA (Hr. pcDNA, which can be extracted in a conventional manner) as a template, changing the DNA conformation through reactions by combining with different platinum-based anticancer drugs, and then distinguishing different platinum drugs by differences in gel electrophoretograms. […]\nThe following samples (test numbers 1-5 and M) were analyzed under the above experimental conditions, and the addition of pcDNA, drugs, and helicases in each sample was shown as follows: • Test 1: pcDNA+Carboplatin+T4 • Test 2: pcDNA+Carboplatin 4.0+T4 • Test 3: pcDNA+Carboplatin 4.0 • Test 4: pcDNA+Carboplatin • Test 5: pcDNA Test M: Marker (Reference Standard)"}, "[2]": {"test": "Cytotoxicity experiments for antiviral application", "type": "cell-based"}}, "data": [{"smiles": "N.N.O=C([O-])C1(C(=O)[O-])CCC1.[Pt+2]", "note": "[carboplatin]", "values": [{"measurement": "cross-linking with linear DNA", "setting": "linear DNA", "result": "quickly forms a cross-linked adduct with DNA"}, {"measurement": "crosslinking with supercoiled plasmid DNA", "setting": "supercoiled plasmid DNA", "result": "crosslinks with the supercoiled plasmid DNA to form a adduct"}, {"measurement": "effect of the helicase on DNA binding of the drug", "setting": "[1]", "result": "no obvious effect"}, {"measurement": "cytotoxicity evaluation for application in an antiviral aspect", "setting": "[2]", "result": "hinders its application in the antiviral aspect"}]}]}
